Measurements published in ChEMBL document CHEMBL1142497, “Emerging protein targets for anticancer metallodrugs: inhibition of thioredoxin reductase and cathepsin B by antitumor ruthenium(II)-arene compounds” (J Med Chem, 2008).

Experiments:
[1] = target: T1, Thioredoxin reductase 1, cytoplasmic (Rattus norvegicus, UniProt O89049)
T1 sequence (O89049 whole entry): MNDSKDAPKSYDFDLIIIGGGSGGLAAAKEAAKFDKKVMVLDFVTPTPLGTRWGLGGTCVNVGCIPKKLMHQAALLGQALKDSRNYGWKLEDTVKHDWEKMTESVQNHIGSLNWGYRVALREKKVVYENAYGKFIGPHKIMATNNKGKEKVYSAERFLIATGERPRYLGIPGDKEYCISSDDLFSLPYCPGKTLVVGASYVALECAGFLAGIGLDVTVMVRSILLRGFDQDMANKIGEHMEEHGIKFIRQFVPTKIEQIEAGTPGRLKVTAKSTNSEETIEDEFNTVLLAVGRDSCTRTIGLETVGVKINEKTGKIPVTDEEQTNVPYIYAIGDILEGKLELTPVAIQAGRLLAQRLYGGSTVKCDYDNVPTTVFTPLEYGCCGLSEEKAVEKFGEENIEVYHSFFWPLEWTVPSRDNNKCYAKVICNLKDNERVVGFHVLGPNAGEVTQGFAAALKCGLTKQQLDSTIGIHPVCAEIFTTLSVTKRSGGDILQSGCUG

[2] = target: Thioredoxin reductase 2, mitochondrial (Rattus norvegicus, UniProt Q9Z0J5)
Thioredoxin reductase 2, mitochondrial, sequence (Q9Z0J5 whole entry): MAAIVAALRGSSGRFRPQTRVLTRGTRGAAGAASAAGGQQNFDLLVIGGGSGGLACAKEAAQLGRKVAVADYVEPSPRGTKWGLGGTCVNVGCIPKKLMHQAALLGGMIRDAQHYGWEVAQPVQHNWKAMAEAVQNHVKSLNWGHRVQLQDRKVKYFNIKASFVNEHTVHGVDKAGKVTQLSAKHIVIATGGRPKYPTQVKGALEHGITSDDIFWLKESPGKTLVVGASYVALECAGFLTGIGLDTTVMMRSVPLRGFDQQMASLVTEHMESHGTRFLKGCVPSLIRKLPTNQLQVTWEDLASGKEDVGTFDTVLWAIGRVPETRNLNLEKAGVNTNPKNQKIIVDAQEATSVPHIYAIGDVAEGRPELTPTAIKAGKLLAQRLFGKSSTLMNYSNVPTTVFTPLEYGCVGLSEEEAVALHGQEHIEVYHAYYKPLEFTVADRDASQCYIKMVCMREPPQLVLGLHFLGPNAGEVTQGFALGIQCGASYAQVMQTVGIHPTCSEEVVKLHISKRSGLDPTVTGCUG

`O=C(O)C1(C(=O)O)CCC1` showed an IC50 [1] greater than 200 µM and an IC50 [2] greater than 200 µM.
